{"source": "patent US20200030355A1", "about": "“COMBINATION THERAPY FOR TREATING CANCER” (Epizyme, Inc., priority 2014, published 2020)", "note": "Counter-ions that a name gives are not always drawn."}
{"tested_on": "MOLM-13 cells", "assay": "EPZ-5676 300 nM 7-day pre-treatment, then second compound 72 hours, ATPLite, IC50 shift (Example 6)", "assay_type": "cell-based, human", "conditions": "300 nM EPZ-5676 or DMSO 7-day pre-treatment, then 2nd compound 72 hours, Synergy = IC50 of 2nd compound decreased by 2-fold or more vs DMSO control", "method": "Cells were then equilibrated in incubators for 24 hours before treatment with a second compound. Treated assay plates were incubated with a second compound for 72 hours. After this time, plates were developed for endpoint analysis using ATPLite to measure ATP content, which is used as an indicator of cell viability.\n“N/D” means that IC50 of the second compound could not be determined for both conditions."}
{"smiles": "Cc1cnc(NC(=O)Nc2cc(Br)c(C)cc2OC[C@@H]2CNCCO2)cn1", "note": "[LY2603618]", "MOLM-13 (summary of combination study: EPZ-5676 + 2nd compound)": "Synergy (considered synergistic if the IC50 value of the second compound decreased by 2-fold or more when EPZ-5676 was added as compared to the DMSO control)"}
{"smiles": "C[C@@]1(C(=O)Nc2ccc(F)nc2)CCCN1c1nc(Nc2cc(C3CC3)n[nH]2)c2cccn2n1", "note": "[BMS-754807]", "MOLM-13 (summary of combination study: EPZ-5676 + 2nd compound)": "Synergy (considered synergistic if the IC50 value of the second compound decreased by 2-fold or more when EPZ-5676 was added as compared to the DMSO control)"}
{"smiles": "Cc1coc2c1C(=O)C(=O)c1c-2ccc2c1CCCC2(C)C", "note": "[TANSHINONE IIA]", "MOLM-13 (summary of combination study: EPZ-5676 + 2nd compound)": "Synergy (considered synergistic if the IC50 value of the second compound decreased by 2-fold or more when EPZ-5676 was added as compared to the DMSO control)"}
{"smiles": "CS(=O)(=O)CCNCc1ccc(-c2ccc3ncnc(Nc4ccc(OCc5cccc(F)c5)c(Cl)c4)c3c2)o1", "note": "[Lapatinib]", "MOLM-13 (summary of combination study: EPZ-5676 + 2nd compound)": "Synergy (considered synergistic if the IC50 value of the second compound decreased by 2-fold or more when EPZ-5676 was added as compared to the DMSO control)"}
{"smiles": "Cc1cccc(CC(=O)N2CCc3c2ccc(-c2cn(C)c4ncnc(N)c24)c3F)n1", "note": "[GSK2656157]", "MOLM-13 (summary of combination study: EPZ-5676 + 2nd compound)": "Synergy (considered synergistic if the IC50 value of the second compound decreased by 2-fold or more when EPZ-5676 was added as compared to the DMSO control)"}
{"smiles": "CC[C@@]1(O)C(=O)OCc2c1cc1n(c2=O)Cc2cc3c(CN(C)C)c(O)ccc3nc2-1", "note": "[Topotecan Hydrochloride]", "MOLM-13 (summary of combination study: EPZ-5676 + 2nd compound)": "Synergy (considered synergistic if the IC50 value of the second compound decreased by 2-fold or more when EPZ-5676 was added as compared to the DMSO control)"}
{"smiles": "CO[C@H]1C[C@@H]2CC[C@@H](C)[C@@](O)(O2)C(=O)C(=O)N2CCCC[C@H]2C(=O)O[C@H]([C@H](C)C[C@@H]2CC[C@@H](OC(=O)C(C)(CO)CO)[C@H](OC)C2)CC(=O)[C@H](C)/C=C(\\C)[C@@H](O)[C@@H](OC)C(=O)[C@H](C)C[C@H](C)/C=C/C=C/C=C/1C", "note": "[Temsirolimus]", "MOLM-13 (summary of combination study: EPZ-5676 + 2nd compound)": "Synergy (considered synergistic if the IC50 value of the second compound decreased by 2-fold or more when EPZ-5676 was added as compared to the DMSO control)"}
{"smiles": "COc1ccc(C2=N[C@@H](c3ccc(Cl)cc3)[C@@H](c3ccc(Cl)cc3)N2C(=O)N2CCNC(=O)C2)c(OC(C)C)c1", "note": "[Nutlin-3]", "MOLM-13 (summary of combination study: EPZ-5676 + 2nd compound)": "Synergy (considered synergistic if the IC50 value of the second compound decreased by 2-fold or more when EPZ-5676 was added as compared to the DMSO control)"}
{"smiles": "CC[C@H](Nc1ncnc2[nH]cnc12)c1nc2cccc(F)c2c(=O)n1-c1ccccc1", "note": "[CAL-101]", "MOLM-13 (summary of combination study: EPZ-5676 + 2nd compound)": "Synergy (considered synergistic if the IC50 value of the second compound decreased by 2-fold or more when EPZ-5676 was added as compared to the DMSO control)"}
{"smiles": "Cc1ccc2nc(NCCN)c3ncc(C)n3c2c1", "note": "[BMS 345541]", "MOLM-13 (summary of combination study: EPZ-5676 + 2nd compound)": "Synergy (considered synergistic if the IC50 value of the second compound decreased by 2-fold or more when EPZ-5676 was added as compared to the DMSO control)"}
{"smiles": "Clc1ccc(C2(c3ccc(-c4cn[nH]c4)cc3)CCNCC2)cc1", "note": "[AT7867]", "MOLM-13 (summary of combination study: EPZ-5676 + 2nd compound)": "Synergy (considered synergistic if the IC50 value of the second compound decreased by 2-fold or more when EPZ-5676 was added as compared to the DMSO control)"}
{"smiles": "N.N.[Cl][Pt][Cl]", "note": "[Cisplatin]", "MOLM-13 (summary of combination study: EPZ-5676 + 2nd compound)": "Synergy (considered synergistic if the IC50 value of the second compound decreased by 2-fold or more when EPZ-5676 was added as compared to the DMSO control)"}
{"smiles": "COc1cc([C@@H]2c3cc4c(cc3[C@@H](O[C@@H]3O[C@@H]5CO[C@@H](C)O[C@H]5[C@H](O)[C@H]3O)[C@H]3COC(=O)[C@H]23)OCO4)cc(OC)c1O", "note": "[Etoposide]", "MOLM-13 (summary of combination study: EPZ-5676 + 2nd compound)": "Synergy (considered synergistic if the IC50 value of the second compound decreased by 2-fold or more when EPZ-5676 was added as compared to the DMSO control)"}
